The values below come from publication PMC5898707, “Piperazinyl fragment improves anticancer activity of Triapine” (PLoS ONE, 2018).

For one data set, the system named is MCF-7. Description: Cytotoxicity MTS assay, 72 h. Type of data set: cell-based, human. Particulars: Homo sapiens, MCF7; MCF-7; 72 h; MTS. An excerpt: (§1) The human colon carcinoma cell line HCT116 wild type (p53^+/+), human breast carcinoma cell line MCF-7 and glioblastoma cell line Hs683 were obtained from ATCC. The glioma cell line U-251 was purchased from Sigma Aldrich and the normal human fibroblast cell lines NHDF from PromoCell. The human colon cancer cell line HCT116 with a p53 deletion (p53^-/-) was kindly provided by Prof. M. Rusin from the Maria Sklodowska-Curie Memorial Cancer Centre and Institute of Oncology in Gliwice, Poland. Cells were grown as monolayer cultures in Dulbecco’s modified Eagle’s medium with an antibiotic gentamicin (200 μL/100 mL medium) in 75 cm^2 flasks (Nunc). DMEM for HCT116, MCF-7, U-251, Hs683 were supplemented with 12% heat-inactivated fetal bovine serum (Sigma) and for NHDF with 15% non-inactivated fetal bovine serum (Sigma). All the cell lines were cultured under standard conditions at 37°C in a humidified atmosphere at 5% CO2.
(§2) The cells were seeded in 96-well plates (Nunc) at a density of 5,000 cells/well (HCT116, MCF-7, U-251, Hs683) and 4,000 cells/well (NHDF) and incubated at 37°C for 24 h. The assay was performed following a 72 h incubation with varying concentrations of the compounds that were tested. Then, 20 μL of The CellTiter 96®AQueous One Solution-MTS (Promega) solution was added to each well (with 100 μL DMEM without phenol red) and incubated for 1 h at 37°C. The optical densities of the samples were analyzed at 490 nm using a multi-plate reader (Synergy 4, Bio Tek). Results were expressed as a percentage of the control and calculated as the inhibitory concentration (IC50) values using GraphPad Prism 5. The IC50 parameter was defined as the compound concentration that was necessary to reduce the proliferation of cells to 50% of the untreated control. Each individual compound was tested in triplicate in a single experiment with each experiment being repeated four to five times.
In general terms: Tetrazolium dyes change colour on reduction, which living cells bring about.

A further data set deals with U-251. Nature of the data set: Cytotoxicity MTS assay, 72 h. Type of data set: cell-based, human. Particulars: Homo sapiens; U-251; 72 h; MTS.
Excerpt: as §1, §2

Another data set concerns Hs683. Description: Cytotoxicity MTS assay, 72 h. The conditions noted are these: Homo sapiens, Hs 683; Hs683; 72 h; MTS. Type of data set: cell-based, human.
Excerpt: as §1, §2

The subject of a further data set is HCT116 p53^+/+. Nature of the data set: Cytotoxicity MTS assay, 72 h. The conditions noted are these: Homo sapiens, HCT-116; HCT116 p53^+/+; 72 h; MTS. The format is cell-based, human.
Excerpt: as §1, §2

The test system of a further data set is HCT116 p53^-/-. Nature of the data set: Cytotoxicity MTS assay, 72 h. The conditions noted are these: Homo sapiens, HCT-116; HCT116 p53^-/-; 72 h; MTS. The format is cell-based, human.
Excerpt: as §1, §2

Another data set deals with NHDF. Nature of the data set: Cytotoxicity MTS assay, 72 h. Type of data set: cell-based. Particulars: Homo sapiens, NHDF normal fibroblasts.
Excerpt: as §1, §2

For data set [1] the following is noted: tabulated value; cited from earlier work.

Compound `Nc1cccnc1C=NNC(=S)N1CCN(c2ncc(C(F)(F)F)cc2Cl)CC1` [L^10, N’-[(3-aminopyridin-2-yl)methylidene]-4-[3-chloro-5-(trifluoromethyl)pyridin-2-yl]piperazine-1-carbothiohydrazide] displayed a melting point of 199 to 200 °C. Further, the IC50 with MCF-7 worked out at 258 ± 40 nM. Also, the IC50 in the data set on U-251 stood at 137 ± 16 nM. Further, the IC50 with Hs683 amounted to 195 ± 21 nM. The IC50 in the data set on HCT116 p53^+/+ was 170 ± 15 nM. Besides, the 50% inhibitory concentration (IC50) with HCT116 p53^-/- is 159 ± 11 nM. The half-maximal inhibitory concentration (IC50) in the data set with NHDF is above 25000 nM.
For `c1ccncc1` [pyridine], in data set [1], the logK is reported as 5.23.
Take `Nc1cccnc1C=NNC(=S)N1CCN(c2ccc(C(F)(F)F)cn2)CC1` [L^9, N’-[(3-aminopyridin-2-yl)methylidene]-4-[5-(trifluoromethyl)pyridin-2-yl]piperazine-1-carbothiohydrazide]: the IC50 was 204 ± 24 nM in the data set with MCF-7; 277 ± 58 nM in the data set with U-251; 844 ± 238 nM in the data set with Hs683; 422 ± 113 nM in the data set on HCT116 p53^+/+; 123 ± 61 nM with HCT116 p53^-/-; above 25000 nM in the data set on NHDF.
Compound `N#Cc1ccc(N2CCN(C(=S)NN=Cc3ncccc3N)CC2)cc1` [L^5, N’-[(3-aminopyridin-2-yl)methylidene]-4-(4-cyanophenyl)piperazine-1-carbothiohydrazide] displayed a melting point of 209 to 210 °C. For the same compound, the IC50 in the data set on MCF-7 worked out at 3810 ± 1020 nM. For the same compound, in the data set with U-251, the half-maximal inhibitory concentration (IC50) is 2570 ± 675 nM. In addition, in the data set on Hs683, the IC50 stood at 10000 ± 2640 nM. The IC50 in the data set on HCT116 p53^+/+ was determined as 1450 ± 452 nM. In addition, the IC50 in the data set on HCT116 p53^-/- came out at 746 ± 354 nM. Also, the IC50 in the data set on NHDF is above 25000 nM.
As for `Nc1cccnc1C=NNC(=S)N1CCN(c2ccc(F)cc2)CC1` [L^2, N’-[(3-aminopyridin-2-yl)methylidene]-4-(4-fluorophenyl)piperazine-1-carbothiohydrazide], the melting point was 210 to 211 °C. The IC50 in the data set with MCF-7 is 360 ± 111 nM. Further, the IC50 in the data set with U-251 was determined as 887 ± 158 nM. The IC50 with Hs683 was determined as 2490 ± 512 nM. For the same compound, the concentration for half-maximal inhibition (IC50) with HCT116 p53^+/+ is 526 ± 77 nM. Moreover, the half-inhibitory concentration (IC50) in the data set on HCT116 p53^-/- was 152 ± 74 nM. The 50% inhibitory concentration (IC50) in the data set on NHDF is above 25000 nM.
`Nc1cccnc1C=NNC(=S)N1CCN(c2ccccc2)CC1` [L^1, N’-[(3-aminopyridin-2-yl)methylidene]-4-phenylpiperazine-1-carbothiohydrazide] showed a melting point of 189 to 190 °C. For the same compound, the IC50 in the data set with MCF-7 was found to be 532 ± 145 nM. Moreover, the IC50 in the data set on U-251 stood at 403 ± 90 nM. Besides, the half-inhibitory concentration (IC50) in the data set on Hs683 came to 1440 ± 358 nM. Also, the 50% inhibitory concentration (IC50) with HCT116 p53^+/+ was determined as 1520 ± 445 nM. For the same compound, the 50% inhibitory concentration (IC50) in the data set with HCT116 p53^-/- is 128 ± 12 nM. In the data set on NHDF, the IC50 is above 25000 nM.
`Nc1cccnc1C=NNC(=S)N1CCN(c2ccccn2)CC1` [L^8, N’-[(3-aminopyridin-2-yl)methylidene]-4-(pyridin-2-yl)piperazine-1-carbothiohydrazide] returned a melting point of 210 to 211 °C. Moreover, the IC50 in the data set on MCF-7 is 1120 ± 113 nM. Besides, in the data set with U-251, the half-maximal inhibitory concentration (IC50) stood at 1070 ± 280 nM. In addition, the concentration for half-maximal inhibition (IC50) with Hs683 was found to be 1160 ± 307 nM. The IC50 with HCT116 p53^+/+ turned out to be 1900 ± 292 nM. Besides, the concentration for half-maximal inhibition (IC50) in the data set with HCT116 p53^-/- turned out to be 139 ± 20 nM. Besides, in the data set on NHDF, the concentration for half-maximal inhibition (IC50) was above 25000 nM.
In the case of `COc1ccc(N2CCN(C(=S)NN=Cc3ncccc3N)CC2)cc1` [L^4, N’-[(3-aminopyridin-2-yl)methylidene]-4-(4-methoxyphenyl)piperazine-1-carbothiohydrazide], the melting point fell in the range of 195 to 196 °C. For the same compound, the IC50 in the data set with MCF-7 is 424 ± 149 nM. The IC50 in the data set with U-251 came out at 649 ± 170 nM. In addition, the 50% inhibitory concentration (IC50) in the data set with Hs683 was 4460 ± 954 nM. Further, in the data set with HCT116 p53^+/+, the 50% inhibitory concentration (IC50) came to 1330 ± 209 nM. In addition, in the data set with HCT116 p53^-/-, the IC50 amounted to 185 ± 88 nM. In addition, the half-inhibitory concentration (IC50) in the data set on NHDF was above 25000 nM.
Turning to `CC(C)(C)OC(=O)N1CCN(C(=S)NN=Cc2ncccc2N)CC1` [L^7, tert-butyl 4-({2-[(3-aminopyridin-2-yl)methylidene]hydrazinyl}carbonothioyl)piperazine-1-carboxylate], the melting point lay within 193 to 194 °C. For the same compound, the half-maximal inhibitory concentration (IC50) in the data set with MCF-7 amounted to 2540 ± 400 nM. Besides, the IC50 in the data set with U-251 stood at 3080 ± 1270 nM. The IC50 in the data set on Hs683 was 4620 ± 1030 nM. Besides, in the data set with HCT116 p53^+/+, the IC50 was determined as 762 ± 238 nM. Moreover, in the data set on HCT116 p53^-/-, the IC50 stood at 1130 ± 49 nM. Besides, the IC50 in the data set with NHDF is above 25000 nM.
`Nc1cccnc1C=NNC(=S)N1CCN(c2ccc(C(F)(F)F)cc2[N+](=O)[O-])CC1` [L^6, N’-[(3-aminopyridin-2-yl)methylidene]-4-[2-nitro-4-(trifluoromethyl)phenyl]piperazine-1-carbothiohydrazide] had a melting point of 179 to 180 °C. For the same compound, the IC50 in the data set with MCF-7 worked out at 470 ± 97 nM. For the same compound, the 50% inhibitory concentration (IC50) in the data set with U-251 came out at 381 ± 42 nM. Also, the IC50 with Hs683 was 1890 ± 812 nM. Also, the IC50 in the data set on HCT116 p53^+/+ came to 139 ± 16 nM. For the same compound, the half-maximal inhibitory concentration (IC50) in the data set on HCT116 p53^-/- came to 270 ± 7 nM. In addition, the IC50 in the data set with NHDF was above 25000 nM.
In turn, `Nc1cccnc1C=NNC(=S)N1CCN(c2cnccn2)CC1` [L^12, N’-[(3-aminopyridin-2-yl)methylidene]-4-(pyrazin-2-yl)piperazine-1-carbothiohydrazide] displayed a melting point of 217 to 218 °C. Moreover, the half-inhibitory concentration (IC50) in the data set with MCF-7 was determined as 2220 ± 638 nM. Further, the half-maximal inhibitory concentration (IC50) in the data set with U-251 was found to be 743 ± 109 nM. In the data set with Hs683, the concentration for half-maximal inhibition (IC50) amounted to 2600 ± 237 nM. Also, the IC50 with HCT116 p53^+/+ stood at 435 ± 108 nM. The half-maximal inhibitory concentration (IC50) with HCT116 p53^-/- was 342 ± 42 nM. In addition, the half-inhibitory concentration (IC50) in the data set with NHDF is above 25000 nM.
For the compound `Nc1cccnc1C=NNC(=S)N1CCN(c2ncccn2)CC1` [L^11, N’-[(3-aminopyridin-2-yl)methylidene]-4-(pyrimidin-2-yl)piperazine-1-carbothiohydrazide], the melting point fell in the range of 198 to 199 °C. Besides, in the data set on MCF-7, the IC50 turned out to be 1730 ± 388 nM. Besides, the IC50 in the data set with U-251 is 1270 ± 374 nM. Further, the IC50 with Hs683 stood at 2840 ± 581 nM. The half-inhibitory concentration (IC50) in the data set with HCT116 p53^+/+ is 668 ± 45 nM. Further, in the data set on HCT116 p53^-/-, the half-maximal inhibitory concentration (IC50) was 650 ± 55 nM. In addition, the IC50 in the data set on NHDF was above 25000 nM.

By melting point is commonly meant the temperature of the solid-liquid transition. Usually IC50 stands for the concentration at which inhibition is half-maximal.
